The values that follow come from PubChem BioAssay AID1918994 (Molecular Pharmacology Branch, DTP, NCI, 2023).

Values joined by “and” are separate entries in the source; they are usually repeats but may differ in a detail not shown here. Equal values may be shown once.

The assay has as its system 292921-168-R-J2-PDC complex spheroid growth. The assay can be described thus: Anticancer human tumor 292921-168-R-J2-PDC patient-derived pancreatic carcinoma cell line growth inhibition [AhR]. The settings on record: for viability, T/C: stronger effect = lower value. The source says:
Multicellular complex tumor spheroid response to aryl hydrocarbon receptor antagonists in combination with a variety of drugs and investigational agents in selected tumor cell lines
The current study was undertaken to assess response to aryl hydrocarbon receptor antagonists in combination with standard-of-care drugs and investigational agents in solid tumor complex spheroid models. Complex spheroids include a stromal component modeled by human endothelial cells (HUVEC) and fibroblasts modeled by human mesenchymal stem cells (MSCs). The concentration ranges selected for each drug and investigational agent were based upon clinically achievable concentrations if the clinical Cmax of the agent was known.
Compounds. The drugs and investigational agents: BAY 2416964 (NSC825713), GNF351 (NSC835774), CH-223191 (NSC835775), CPI-455 (NSC825282), aza-TdCyd (NSC777586), decitabine (NSC127716), belinostat (NSC758774), entinostat (NSC756642), pevonedistat (NSC761192), tazemetostat (NSC777109), talazoparib (NSC765396), olaparib (NSC753686), selinexor (NSC780203), nedisertib (M3814, NSC802822), bortezomib (NSC756655), venetoclax (NSC766270), doxorubicin (NSC123127), elimusertib (BAY189344, NSC800525), ceralasertib (AZD6738, NSC777638), TAK-243 (NSC785004), alisertib (NSC759677), etoposide (NSC141540), topotecan (NSC609699), eribulin (NSC707389), gemcitabine (NSC613327), carboplatin (NSC241240), cisplatin (NSC119875), and SN-38 (NSC673596) were obtained from the National Cancer Institute (NCI) Developmental Therapeutics Program Chemical Repository (32). The FDA-approved anticancer drug set is available from the Developmental Therapeutics Program at https://dtp.cancer.gov/organization/dscb/obtaining/available plates.htm. […] The stock solutions were prepared in dimethyl sulfoxide (DMSO, Sigma-Aldrich, St. Louis, MO, cat. D2650), except for the platinum compounds which were prepared in saline (Quality Biological, Gaithersburg, MD, cat. 114-055-101), at 800-fold the tested concentration and stored at -70 degrees C prior to their use. All drugs and investigational agents were tested over a range starting from a high concentration at or near the clinical Cmax and decreasing in half-log increments. If the clinical Cmax for an agent had not been determined, the highest concentration tested was 10 microM (Table 1).
Cell Culture. All cells were maintained in an incubator at 37 degrees C and 5% CO2 with 95% humidity. The PDC lines were cultured according to standard operating procedures established by the NCI PDMR (https://pdmr.cancer.gov). Briefly, all PDCs were thawed and cultured in Matrigel-coated flasks prepared with a working solution of 1X Ham's F-12 nutrient mix, without supplementation (Invitrogen, Waltham, MA, cat. 11765054), 100 U/mL penicillin-streptomycin (Invitrogen, cat. 15140122), and 2.5% Matrigel (Corning Inc., Corning, NY, cat. 354248) for the first three passages. All PDCs were cultured in complete DMEM/F-12 media containing advanced DMEM/F-12 (Invitrogen, cat. 12634028), 4.9% defined fetal bovine serum, heat inactivated (HyClone Laboratories Inc., Logan, UT, cat. SH30070.03HI), 389 ng/mL hydrocortisone (Sigma-Aldrich, cat. H4001), 9.7 ng/mL human EGF recombinant protein (Invitrogen, cat. PHG0313), 23.4 microg/mL adenine (Sigma-Aldrich, cat. A2786), 97.3 U/mL penicillin-streptomycin (Invitrogen, cat. 15140122), 1.9 mM L-glutamine (Invitrogen, cat. 25030081), and 9.7 microM Y-27632 dihydrochloride (Tocris Bioscience, Bristol, United Kingdom, cat. 1254). The PDCs were cultured in complete DMEM/F12 media without 10 microM Y-27632 dihydrochloride for at least two passages prior to the screen. The established cell lines NCI-H1341 and […] were cultured in DMEM/F-12, HEPES (Invitrogen, cat. 11330032), 5% defined fetal bovine serum (HyClone Laboratories Inc., cat. SH30070.03), ITS premix universal culture supplement [insulin (5 microg/mL), transferrin (5 microg/mL), and selenious acid (5 ng/mL)] […]

The mark [1] stands for this setting: curve of first compound, second compound 0.1 µM.
Where [2] appears, read: curve of first compound, second compound 0.316 µM.
The mark [3] stands for this setting: curve of first compound, second compound 1 µM.
Where [4] appears, read: curve of first compound, second compound 3.16 µM.
The mark [5] stands for this setting: curve of first compound, second compound 10 µM.
Where [6] appears, read: second compound 0.1 µM, first compound 0.0316 µM.
Where [7] appears, read: second compound 0.1 µM, first compound 0.1 µM.
[8] abbreviates: second compound 0.1 µM, first compound 0.316 µM.
Setting [9] is: second compound 0.1 µM, first compound 1 µM.
The mark [10] stands for this setting: second compound 0.316 µM, first compound 0.0316 µM.
The mark [11] stands for this setting: second compound 0.316 µM, first compound 0.1 µM.
Where [12] appears, read: second compound 0.316 µM, first compound 0.316 µM.
[13] abbreviates: second compound 0.316 µM, first compound 1 µM.
The mark [14] stands for this setting: second compound 1 µM, first compound 0.0316 µM.
The mark [15] stands for this setting: second compound 1 µM, first compound 0.1 µM.
Where [16] appears, read: second compound 1 µM, first compound 0.316 µM.
The mark [17] stands for this setting: second compound 1 µM, first compound 1 µM.
[18] abbreviates: second compound 3.16 µM, first compound 0.0316 µM.
The mark [19] stands for this setting: second compound 3.16 µM, first compound 0.1 µM.
Where [20] appears, read: second compound 3.16 µM, first compound 0.316 µM.
Setting [21] is: second compound 3.16 µM, first compound 1 µM.
Setting [22] is: second compound 10 µM, first compound 0.0316 µM.
The mark [23] stands for this setting: second compound 10 µM, first compound 0.1 µM.
The mark [24] stands for this setting: second compound 10 µM, first compound 0.316 µM.
[25] abbreviates: second compound 10 µM, first compound 1 µM.
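Note: spheroids exposed to compounds for seven days after three days of growth.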

Turning to `Nc1ncn(C2CC(O)C(CO)O2)c(=O)n1` (stereo unspecified) + Cc1cncc(-c2nc(NCCc3c[nH]c4ccccc34)c3ncn(C(C)C)c3n2)c1, the IC50 runs as follows: under setting [1], above 1000 nM; under setting [2], above 1000 nM; under setting [3], above 1000 nM; under setting [4], above 1000 nM; under setting [5], 9.68 nM. In addition, the viability, T/C runs as follows: (second compound 0.1 µM, first compound 0.00316 µM) 99.6%; (second compound 0.1 µM, first compound 0.01 µM) 100%; under setting [6], 84%; under setting [7], 89.6%; under setting [8], 80.6%; under setting [9], 65.6%. In addition, the viability, T/C reads like this: (second compound 0.316 µM, first compound 0.00316 µM) 84.1%; (second compound 0.316 µM, first compound 0.01 µM) 86.2%; under setting [10], 88.1%; under setting [11], 79.3%; under setting [12], 78.6%; under setting [13], 70.7%. The viability, T/C was 80.5% (second compound 1 µM, first compound 0.00316 µM); 86.9% (second compound 1 µM, first compound 0.01 µM); 80.4% under setting [14]; 77.8% under setting [15]; 82% under setting [16]; 73.7% under setting [17]. Moreover, the viability, T/C runs as follows: (second compound 3.16 µM, first compound 0.00316 µM) 70.7%; (second compound 3.16 µM, first compound 0.01 µM) 71.9%; under setting [18], 76.5%; under setting [19], 67.6%; under setting [20], 64.1%; under setting [21], 62.3%. The viability, T/C is 51.9% (second compound 10 µM, first compound 0.00316 µM); 49% (second compound 10 µM, first compound 0.01 µM); 50% under setting [22]; 47.1% under setting [23]; 43.2% under setting [24]; 45.5% under setting [25].

For `COc1cccc2c1C(=O)c1c(O)c3c(c(O)c1C2=O)CC(O)(C(=O)CO)CC3OC1CC(N)C(O)C(C)O1` (stereo unspecified) + Cc1cncc(-c2nc(NCCc3c[nH]c4ccccc34)c3ncn(C(C)C)c3n2)c1, the IC50 is below 31.6 nM under setting [1]; below 31.6 nM under setting [2]; below 31.6 nM under setting [3]; below 31.6 nM under setting [4]; below 31.6 nM under setting [5]. The viability, T/C was 30.9% under setting [6]; 25.2% under setting [7]; 9.88% under setting [8]; 0.21% under setting [9]; 0.78% (second compound 0.1 µM, first compound 3.16 µM); 2.79% (second compound 0.1 µM, first compound 10 µM). In addition, the viability, T/C under setting [10] was 30.6%; the viability, T/C under setting [11] is 23.2%; the viability, T/C under setting [12] was 9.81%; the viability, T/C under setting [13] is 0.2%; the viability, T/C (second compound 0.316 µM, first compound 3.16 µM) was 0.66%; the viability, T/C (second compound 0.316 µM, first compound 10 µM) is 2.98%. For the same molecule, the viability, T/C is, setting by setting: under setting [14], 29.3%; under setting [15], 22.7%; under setting [16], 9.15%; under setting [17], 0.34%; (second compound 1 µM, first compound 3.16 µM) 1.61%; (second compound 1 µM, first compound 10 µM) 3.01%. Further, the viability, T/C was 26.8% under setting [18]; 22.1% under setting [19]; 9.58% under setting [20]; 0.2% under setting [21]; 1.48% (second compound 3.16 µM, first compound 3.16 µM); 3.82% (second compound 3.16 µM, first compound 10 µM). Also, the viability, T/C under setting [22] is 25.3%; the viability, T/C under setting [23] is 21.3%; the viability, T/C under setting [24] was 10.8%; the viability, T/C under setting [25] was 0.46%; the viability, T/C (second compound 10 µM, first compound 3.16 µM) is 2.04%; the viability, T/C (second compound 10 µM, first compound 10 µM) was 4.23%.

Turning to `COc1cc(C2c3cc4c(cc3C(OC3OC5COC(C)OC5C(O)C3O)C3COC(=O)C23)OCO4)cc(OC)c1O` (stereo unspecified), the viability, T/C runs as follows: (compound 0.0316 µM) 96% and 96.6% and 96.5%; (compound 0.1 µM) 93.8% and 79.8% and 87.8%; (compound 0.316 µM) 66.4% and 73% and 56%; (compound 1 µM) 43.2% and 38.8% and 31.6%; (compound 3.16 µM) 29% and 26% and 19.7%; (compound 10 µM) 13.7% and 15.4% and 10.6%. Moreover, under “curve of compound”, the IC50 is 768 nM and 710 nM and 449 nM.

As to `CC(C)CC(NC(=O)C(Cc1ccccc1)NC(=O)c1cnccn1)B(O)O` (stereo unspecified), the viability, T/C is 106% and 109% and 104% (compound 0.000949 µM); 116% and 121% and 106% (compound 0.003 µM); 53.1% and 25.4% and 12.2% (compound 0.00949 µM); 3.87% and 2.27% and 1.64% (compound 0.03 µM); 0.72% and 0.67% and 0.85% (compound 0.0949 µM); 0.4% and 0.5% and 2.3% (compound 0.3 µM). Moreover, the IC50 (curve of compound) is 10.2 nM and 6.92 nM and 5.94 nM.

For the molecule `Cn1ncnc1C1c2n[nH]c(=O)c3cc(F)cc(c23)NC1c1ccc(F)cc1` (stereo unspecified), the viability, T/C is 101% and 103% and 106% (compound 0.000316 µM); 103% and 111% and 95.4% (compound 0.001 µM); 96.3% and 91.7% and 97.4% (compound 0.00316 µM); 96.2% and 96.3% and 97.7% (compound 0.01 µM); 88% and 97.5% and 90.3% (compound 0.0316 µM); 91.5% and 80.2% and 86% (compound 0.1 µM). The IC50 (curve of compound) is above 100 nM.
